# Laboratory results reported in patent US9096591B2, “Tetracyclic compounds” (Medivation Technologies, Inc., priority 2007, dated 2015).
# Tests used:
# [1] = target: T1, human recombinant histamine H2 receptor (Homo sapiens, UniProt P25021); test: Histamine H2 radioligand binding ([125I]Aminopotentidine); details: read-out: Inhibition of ligand binding, Hist. H2
# T1 construct: expressed in transfected cells; host or cells: CHO-K1 cells
# In short: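 This radioligand binding assay measured displacement of [125I]Aminopotentidine from recombinant human histamine H2 receptors. Compounds were dissolved in 1% DMSO vehicle. Specific binding was calculated by subtracting non-specific binding, defined using 3 μM Tiotidine, and activity was reported as percentage inhibition of that specific binding.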
# [2] = target: T2, human recombinant dopamine D2L receptor (Homo sapiens, UniProt P14416); test: Dopamine D2L radioligand binding ([3H]Spiperone); details: percent inhibition of specific binding
# T2 construct: expressed in transfected cells; host or cells: CHO cells
# T2 sequence (P14416 whole entry): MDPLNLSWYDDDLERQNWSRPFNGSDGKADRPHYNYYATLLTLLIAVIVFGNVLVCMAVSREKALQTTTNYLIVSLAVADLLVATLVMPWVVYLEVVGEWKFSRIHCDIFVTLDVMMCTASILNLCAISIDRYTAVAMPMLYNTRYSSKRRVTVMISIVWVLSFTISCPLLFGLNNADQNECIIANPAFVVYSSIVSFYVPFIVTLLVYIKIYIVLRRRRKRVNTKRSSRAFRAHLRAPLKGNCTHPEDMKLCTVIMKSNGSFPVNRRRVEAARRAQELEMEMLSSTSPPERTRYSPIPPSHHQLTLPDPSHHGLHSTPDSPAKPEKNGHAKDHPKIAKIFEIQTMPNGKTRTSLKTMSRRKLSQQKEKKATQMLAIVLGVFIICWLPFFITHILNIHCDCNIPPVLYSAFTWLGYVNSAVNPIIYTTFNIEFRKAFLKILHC
# Method: Non-specific binding was estimated in the presence of 10 μM Haloperidol. Receptor proteins were filtered and washed, the filters were then counted to determine [^3H]Spiperone specifically bound. […] Biochemical assay results are presented as the percent inhibition of specific binding in Table 6.
# [3] = target: T3, human recombinant histamine H1 receptor (Homo sapiens, UniProt P35367); test: Histamine H1 radioligand binding ([3H]Pyrilamine); details: read-out: Inhibition of ligand binding, Hist. H1
# T3 construct: expressed in transfected cells; host or cells: CHO cells
# T3 sequence (P35367 whole entry): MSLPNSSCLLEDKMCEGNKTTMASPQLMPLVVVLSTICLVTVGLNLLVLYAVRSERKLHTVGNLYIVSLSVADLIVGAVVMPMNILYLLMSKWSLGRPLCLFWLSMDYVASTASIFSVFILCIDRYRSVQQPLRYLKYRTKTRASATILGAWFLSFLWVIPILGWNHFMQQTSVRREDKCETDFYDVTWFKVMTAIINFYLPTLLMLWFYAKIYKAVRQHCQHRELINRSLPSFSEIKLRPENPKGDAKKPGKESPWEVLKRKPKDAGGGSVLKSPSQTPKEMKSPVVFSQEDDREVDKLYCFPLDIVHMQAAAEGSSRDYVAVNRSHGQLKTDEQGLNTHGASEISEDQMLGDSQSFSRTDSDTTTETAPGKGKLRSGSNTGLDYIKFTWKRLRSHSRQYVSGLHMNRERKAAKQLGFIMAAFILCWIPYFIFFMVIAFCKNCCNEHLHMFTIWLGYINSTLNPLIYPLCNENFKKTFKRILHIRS
# In short: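 CHO-expressed receptor in modified Tris-HCl buffer (50 mM, pH 7.4; 2 mM MgCl2, 100 mM NaCl, 250 mM sucrose); bound ligand measured after filtration and washing.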
# [4] = tested on: synaptosomes of cortex of rat brain; test: Glutamate-induced 45Ca2+ uptake into synaptosomes; assay type: biochemical, Wistar rats; details: for % Ca of control (control-100%), glutamate-induced 45Ca2+ uptake into synaptosomes: rat cortex synaptosomes
# In short: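 Cortical synaptosomes (P2 fraction) from 9-10-day-old Wistar rats, ~1.5-2 mg/ml protein in HEPES-buffered saline with glucose, pH 7.4, stimulated 5 min with 200 μM glutamate at 37° C. 45Ca2+ uptake measured by filtration and scintillation counting; specific uptake with compound expressed as percentage of glutamate-induced uptake, each corrected for unstimulated uptake.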
# T1 sequence (P25021 whole entry): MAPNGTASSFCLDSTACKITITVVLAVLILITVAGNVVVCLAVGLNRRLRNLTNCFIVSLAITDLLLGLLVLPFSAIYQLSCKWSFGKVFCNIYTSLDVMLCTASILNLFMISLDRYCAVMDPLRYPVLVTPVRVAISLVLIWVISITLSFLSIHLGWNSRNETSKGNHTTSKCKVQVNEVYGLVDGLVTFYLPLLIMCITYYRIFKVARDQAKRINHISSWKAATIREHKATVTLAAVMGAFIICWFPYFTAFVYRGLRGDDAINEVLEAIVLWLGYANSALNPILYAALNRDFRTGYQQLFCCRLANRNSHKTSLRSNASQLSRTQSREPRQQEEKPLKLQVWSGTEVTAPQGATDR
structure (smiles),measurement,setting,value
CN1CCc2c(c3cc(Cl)ccc3n2CCc2ccc(C(F)(F)F)nc2)C1 [Compound 250],inhibition at 1 µM,[1],54%
same,"Inhibition of ligand binding, Dop. D2L",[2],21%
same,inhibition at 1 µM,[3],102%
CN1CCc2c(c3cc(Cl)ccc3n2CCc2nc(-c3ccccc3)cs2)C1 [Compound C1-8],inhibition of glutamate-induced 45Ca2+ uptake into synaptosomes,[4]; 1-5 μM,~14%
same,"glutamate-induced 45Ca2+ uptake into synaptosomes of rat cortex, % of control",[4]; 50-100 μM,122%
same,"% Ca of control (control-100%), glutamate-induced 45Ca2+ uptake into synaptosomes",[4]; compound 0.1 μM,99.2 ± 1.4%
same,"% Ca of control (control-100%), glutamate-induced 45Ca2+ uptake into synaptosomes",[4]; compound 0.5 μM,96.7 ± 2.4%
same,"% Ca of control (control-100%), glutamate-induced 45Ca2+ uptake into synaptosomes",[4]; compound 1 μM,86.1 ± 0.1%
same,"% Ca of control (control-100%), glutamate-induced 45Ca2+ uptake into synaptosomes",[4]; compound 5 μM,87.7 ± 2.7%
same,"% Ca of control (control-100%), glutamate-induced 45Ca2+ uptake into synaptosomes",[4]; compound 10 μM,99.3 ± 3.0%
same,"% Ca of control (control-100%), glutamate-induced 45Ca2+ uptake into synaptosomes",[4]; compound 50 μM,122.4 ± 1.6%
same,"% Ca of control (control-100%), glutamate-induced 45Ca2+ uptake into synaptosomes",[4]; compound 100 μM,121.7 ± 13.9%
"Cc1ccc2c(c1)c1c(n2CCc2ccc(C)nc2)CCN(C)C1 [Dimebon, dimebon, reference compound]",inhibition at 1 µM,[1],83%
same,concentration at which glutamate-induced 45Ca2+ uptake into synaptosomes was inhibited,[4],0.25 to 10 µM
same,inhibition of glutamate-induced 45Ca2+ uptake into synaptosomes,[4]; 1 μM (maximal inhibition),40%
same,"glutamate-induced 45Ca2+ uptake into synaptosomes of rat cortex, % Ca of control (control-100%)",[4]; C 0.1 μM,120 ± 3.3%
same,"glutamate-induced 45Ca2+ uptake into synaptosomes of rat cortex, % Ca of control (control-100%)","[4]; C 0.1 μM, listed as dimebon",120.4%
same,"glutamate-induced 45Ca2+ uptake into synaptosomes of rat cortex, % Ca of control (control-100%)",[4]; C 0.5 μM,64.4 ± 12.4%
same,"glutamate-induced 45Ca2+ uptake into synaptosomes of rat cortex, % Ca of control (control-100%)",[4]; C 1.0 μM,61.3 ± 8.1%
same,"glutamate-induced 45Ca2+ uptake into synaptosomes of rat cortex, % Ca of control (control-100%)",[4]; C 5.0 μM,83.2 ± 4.1%
same,"glutamate-induced 45Ca2+ uptake into synaptosomes of rat cortex, % Ca of control (control-100%)",[4]; C 10 μM,89.3 ± 1.2%
same,"glutamate-induced 45Ca2+ uptake into synaptosomes of rat cortex, % Ca of control (control-100%)",[4]; C 25 μM,97.2 ± 8.5%
same,"glutamate-induced 45Ca2+ uptake into synaptosomes of rat cortex, % Ca of control (control-100%)",[4]; C 50 μM,98.7 ± 8.8%
same,"glutamate-induced 45Ca2+ uptake into synaptosomes of rat cortex, % Ca of control (control-100%)",[4]; C 100 μM,132 ± 2.9%
same,"glutamate-induced 45Ca2+ uptake into synaptosomes of rat cortex, % Ca of control (control-100%)","[4]; C 100 μM, listed as dimebon",132%
same,"Inhibition of ligand binding, Dop. D2L",[2],41%
same,inhibition at 1 µM,[3],94%
